Measured values published in PMC11134331, “Cell-active small molecule inhibitors validate the SNM1A DNA repair nuclease as a cancer target” (Chemical Science, 2024).
pIC50: −log10 of the molar value.

Experiments:
RPE-1 cells = experiment: clonogenic survival assay, RPE-1 cells; format: cell-based, human
Protocol: Clonogenic assays were performed in 10 cm tissue culture dishes (for RPE-1 cells, U2OS cells and derived clones). Cells (1000 per dish) were seeded in complete media (10 mL) and allowed to attach overnight, then treated with cisplatin or cisplatin plus inhibitor for the times stated. Following treatments, cells were allowed to grow and form colonies for 10 days. Colonies formed were stained with Coomassie R250 (Sigma) and counted on a COLCount Colony Counter (Oxford Optronix). All experiments represent the mean (±SEM) of at least three biological repeats of duplicate dishes/flasks for each treatment.

[1] = test system: γH2AX foci in RPE-1 cells; experiment: microscopic analysis of damage-induced subnuclear foci, RPE-1 cells; format: cell-based, human
Protocol: To assess the number of nuclear foci following cisplatin/inhibitor treatments, cells were plated in glass bottom dishes (as above) and allowed to attach. Following treatment, cells were fixed with 4% (v/v) formaldehyde in PBS, blocked with immunofluoresence (IF) blocking buffer (5% horse serum, 1% saponin in PBS) for 1 h, then incubated with primary antibodies at the desired concentrations in IF blocking buffer (overnight, 4 °C).
Images were imported into ImageJ and foci were counted using a macro adjusting for staining levels between experiments. Anti-γH2AX antibodies were a mouse monoclonal (Millipore; JBW301).

SNM1A = target: T1, SNM1A (Homo sapiens, UniProt Q6PJP8); experiment: real-time fluorescence-based nuclease assay, SNM1A; format: biochemical; design: DNA encoding for the MBL and β-CASP domains of SNM1A (aa 676–1040) was cloned into the baculovirus transfer vector pFB-LIC-Bse; inferred from vector pFB-LIC-Bse and the IMAC purification; made in house; host or cells: Sf9 insect cells (baculovirus); conditions: SNM1A IC50, real-time fluorescence-based nuclease assay; resynthesised compounds
T1 sequence (Q6PJP8 676-1040): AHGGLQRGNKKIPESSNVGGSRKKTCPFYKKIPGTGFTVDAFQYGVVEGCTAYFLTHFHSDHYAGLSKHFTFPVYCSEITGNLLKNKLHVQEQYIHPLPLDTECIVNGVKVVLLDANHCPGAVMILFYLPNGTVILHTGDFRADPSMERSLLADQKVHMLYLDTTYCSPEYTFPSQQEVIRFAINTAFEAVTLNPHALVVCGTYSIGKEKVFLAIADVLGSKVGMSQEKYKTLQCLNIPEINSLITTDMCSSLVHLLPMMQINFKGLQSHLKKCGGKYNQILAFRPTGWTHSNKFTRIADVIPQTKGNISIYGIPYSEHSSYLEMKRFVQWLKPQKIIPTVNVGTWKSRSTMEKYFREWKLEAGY

Compound: C[C@H](Nc1nc(NCc2ccco2)nc2ccc(Cl)cc12)C(=O)NO [compound 19]
- effect on cisplatin sensitivity (RPE-1 cells; RPE-1, 50 μM compound): did not substantially increase
- reduction in survival as single agent (RPE-1 cells; RPE-1, 50 μM compound): negligible reduction in survival
- toxicity as single agent (RPE-1 cells; RPE-1, 100 μM compound): mild toxicity
- average γH2AX foci count at 24 hours ([1]; RPE-1, cisplatin treated with 50 μM 19): 21.2 ± 0.7 foci
- increase of average γH2AX foci count following pretreatment ([1]; RPE-1, cisplatin treated, 24 hours): 2 fold
- pIC50 (SNM1A): 4.36
